Like-named read-outs stand apart in the source and are kept apart here.
Experiments:
[1] = tested on: patients with atherosclerosis undergoing PCI
Experimental: The protocol called for aspirin (75 to 325 mg) to be administered to all patients. […] The choice of a periprocedural anticoagulant (bivalirudin, unfractionated heparin, low-molecular-weight heparin, or fondaparinux) was also at the discretion of the investigator. Glycoprotein IIb/IIIa inhibitors were allowed only as rescue therapy during PCI to treat new or persistent thrombus formation, slow or no reflow, side-branch compromise, dissection, or distal embolization. The investigator at the site determined the protocol for management of the arterial sheath.
The inclusion criteria for the trial were men or nonpregnant women, 18 years of age or older with coronary atherosclerosis who required PCI for stable angina, a non-ST-segment elevation acute coronary syndrome, or ST-segment elevation myocardial infarction (STEMI). Patients were required to provide written informed consent.
Major exclusion criteria were receipt of a P2Y12 inhibitor or abciximab at any time in the 7 days before randomization and receipt of eptifibatide or tirofiban or fibrinolytic therapy in the 12 hours before randomization.
The primary efficacy end point was the composite rate of death from any cause, myocardial infarction, IDR, or stent thrombosis in the 48 hours after randomization in the modified intention-to-treat population (which comprised patients who actually underwent PCI and received the study drug). […] The key secondary end point was the incidence of stent thrombosis at 48 hours. This end point included definite stent thrombosis, defined according to the criteria of the Academic Research Consortium, or intraprocedural stent thrombosis, which was assessed, with group assignments concealed, at an angiographic core laboratory (Cardiovascular Research Foundation). Intraprocedural stent thrombosis was defined as any new or worsened thrombus related to the stent procedure that was confirmed angiographically. Events of death, myocardial infarction, IDR, and stent thrombosis that occurred during the first 30 days after randomization were adjudicated by the clinical events committee at the Duke Clinical Research Institute. The study adhered to the universal definition of myocardial infarction for myocardial infarction unrelated to PCI but expanded on the definition of PCI-related myocardial infarction.
The numbers and percentages of patients within each analysis population (modified intention-to-treat, intention-to-treat, and safety) were summarized according to treatment group. The primary efficacy analysis of the rate of the composite end point of death from any cause, myocardial infarction, IDR, or stent thrombosis (with all events adjudicated by the clinical events committee) in the 48 hours after randomization was conducted in the modified intention-to-treat population. The primary safety analysis was conducted in the safety population, which comprised all patients who underwent randomization and received at least one dose of the study drug; patients were classified according to the actual treatment received. All calculations and statistical analyses were performed with the use of SAS software, version 9.2.

[2] = tested on: patients with atherosclerosis undergoing PCI; format: in vivo; conditions: human, in vivo, 48 h
Experimental: The primary safety end point was severe bleeding not related to coronary-artery bypass grafting, according to the Global Use of Strategies to Open Occluded Coronary Arteries (GUSTO) criteria, at 48 hours. Several other bleeding definitions were also applied.

[3] = 48 hours, ITT, rate in parentheses

COC(=O)[C@H](c1ccccc1Cl)N1CCc2sccc2C1 [Clopidogrel, clopidogrel, reference compound]
rate of stent thrombosis (key secondary efficacy end point) ([1]; 48 hours): 1.4% | Death ([1]; 48 hours, ITT, n/N): 21/5561 | Death/MI ([1]; 48 hours, ITT, n/N): 275/5561 | Death/MI/IDR ([1]; 48 hours, ITT, n/N): 289/5561 | Death/MI/IDR/ST ([1]; 48 hours, ITT, n/N): 325/5561 | Death/MI/IDR/ST/GUSTO Severe Bleeding (Net Adverse Clinical Events, NACE) ([1]; 48 hours, ITT, n/N): 330/5561 | Death/MI/ST ([1]; 48 hours, ITT, n/N): 315/5561 | Death/Q-wave MI/IDR ([1]; 48 hours, ITT, n/N): 67/5561 | Death/ST ([1]; 48 hours, ITT, n/N): 90/5561 | IDR ([1]; 48 hours, ITT, n/N): 38/5561 | MI ([1]; 48 hours, ITT, n/N): 255/5561 | Q-wave MI ([1]; 48 hours, ITT, n/N): 18/5561 | Stent thrombosis ([1]; 48 hours, ITT, n/N): 74/5561 | Death [1, 3]: (0.4) | Death/MI [1, 3]: (5.0) | Death/MI/IDR [1, 3]: (5.2) | Death/MI/IDR/ST [1, 3]: (5.8) | Death/MI/IDR/ST/GUSTO Severe Bleeding (Net Adverse Clinical Events, NACE) [1, 3]: (5.9) | Death/MI/ST [1, 3]: (5.7) | Death/Q-wave MI/IDR [1, 3]: (1.2) | Death/ST [1, 3]: (1.6) | IDR [1, 3]: (0.7) | MI [1, 3]: (4.6) | Q-wave MI [1, 3]: (0.3) | Stent thrombosis [1, 3]: (1.3) | rate of primary composite efficacy end point (death from any cause, myocardial infarction, IDR, or stent thrombosis) ([1]; 48 hours, modified intention-to-treat): 5.9% | net rate of adverse clinical events (primary efficacy plus primary safety end point) ([1]; 48 hours, post hoc): 6.0% | Stent thrombosis ([1]; 30 days): 1.9% | rate of the composite efficacy end point ([1]; 30 days): 7.0% | rate of intraprocedural stent thrombosis ([1]; in vivo): 1.0% | rate of procedural complications ([1]; in vivo): 4.5% | use of rescue therapy with a glycoprotein IIb/IIIa inhibitor ([1]; in vivo): 3.5% | Any blood transfusion [2]: 16/5527 (0.3) number/total number (percent) | GUSTO-defined bleeding, primary safety end point: severe or life-threatening bleeding [2]: 6/5527 (0.1) number/total number (percent) | GUSTO-defined moderate bleeding [2]: 13/5527 (0.2) number/total number (percent) | GUSTO-defined severe or moderate bleeding [2]: 19/5527 (0.3) number/total number (percent) | TIMI-defined major bleeding [2]: 5/5527 (0.1) number/total number (percent) | TIMI-defined major or minor bleeding [2]: 8/5527 (0.3) number/total number (percent) | TIMI-defined minor bleeding [2]: 3/5527 (0.1) number/total number (percent) | adverse events that led to discontinuation of the study drug [2]: 0.4% | rate of GUSTO-defined severe bleeding (primary safety end point) [2]: 0.11% | rate of adverse events related to treatment [2]: 19.1% | transient dyspnea [2]: 0.3%

Reference: patent publication US8680052B1, “Methods of treating, reducing the incidence of, and/or preventing ischemic events” (The Medicines Company, priority 2013, dated 2014)
